How the values were obtained:
Type in all cases: biochemical
[1] = system: alternative pathway of complement (ZAS activated); test: In vitro complement activation of human serum by Zymosan A (ZAS), comparison of meglumine analogues; details: FIG. 6
Procedure: (§1) A method for investigation of the ability of different agents to activate the complement system in vitro is described. Briefly, human serum is exposed to the different agents for 30 min at 37Ec. The activation is stopped by placing the samples in an ice-water bath and immediately add cold EDTA-solution at a final concentration of 15 mM. The latter stops further activation by chelating calcium and magnesium ions. The degree of activation is subsequently determined by using commercially available enzyme immunoassays (EIA) for determination of specific complement activation products. In these experiments C3a-desArg or SC5b-9 have been used, representing early pathway activation and terminal pathway activation respectively.
In order to investigate and compare the inhibitory effects on in vitro complement activation of other compounds with structural resemblance to meglumine (N-methyl-D-glucamine), a new study was performed. The new test substances chosen were N-methyl-mannosamine, 3-methylamino-1,2-propanediol and 2-(methylamino)ethanol.
Human serum was exposed to Zymosan A (ZAS), a strong activator of the alternative pathway of complement, at three different concentrations (5, 2 and 1 mg/mL serum). The complement activation induced by ZAS alone was compared with that obtained when adding the different test substances at two different concentrations to the ZAS-activated serum. In addition to the three chosen test substances meglumine was included for comparison.
To investigate the inhibitory effects of the test substances at a concentration corresponding to what is given of meglumine when injecting contrast agents such as Hexabrix, a concentration of 5.3 mg/mL serum was used. […] Complement activation induced by ZAS both at 2 and 1 mg/mL, was inhibited by meglumine, 3-methylamino-1,2-propanediol and 2-(methylamino)-ethanol. […] It should be noted that although the concentration of ZAS was reduced, the complement activation obtained was much higher than what would be expected in vivo. Thus meglumine, 3-methylamino-1,2-propanediol and 2-(methylamino)-ethanol seem to be very effective in controlling complement activation.

[2] = system: complement system (early pathway activation, C3a-desArg); test: In vitro complement activation by X-ray contrast agents in human serum, C3a-desArg EIA; details: for inhibition of complement activation induced by Visipaque: substance added to Visipaque, human serum
Procedure: A method for investigation of the ability of different agents to activate the complement system in vitro is described. Briefly, human serum is exposed to the different agents for 30 min at 37Ec. The activation is stopped by placing the samples in an ice-water bath and immediately add cold EDTA-solution at a final concentration of 15 mM. The latter stops further activation by chelating calcium and magnesium ions. The degree of activation is subsequently determined by using commercially available enzyme immunoassays (EIA) for determination of specific complement activation products. In these experiments C3a-desArg or SC5b-9 have been used, representing early pathway activation and terminal pathway activation respectively. The concentrations of contrast agents used in vitro in these experiments is based on the following assumptions: One of the applied clinical doses (ACD) used in vivo is 150 mL Visipaque at a concentration of 320 mg I/mL. For a person of 70 kg with a blood volume of about 5.5 L and a plasma fraction of about 3.5 L, the ACD corresponds to 13.7 mg I/mL serum in the test system. Five times this concentration (68.5 mgI/mL serum) was used for all contrast agents to cover maximum blood concentration immediately after bolus injection of the substances. Hexabrix and Visipaque with concentrations of 320 mg I/mL and phosphate buffered saline (at an equal volume) were added to human serum. Subsequently in vitro complement activation was performed as described previously followed by the determination of C3a-desArg. […] In order to investigate the effect of meglumine on complement activation, meglumine at different concentrations were added to Visipaque and in vitro complement activation was performed followed by determination of C3a-desArg. […] An expanded concentration response experiment (tighter concentration range) was subsequently performed. Ten concentrations of meglumine ranging from 0–18% (w/w) of the iodine content in Visipaque were used. […] The effects of meglumine (39% w/w of mg I/ml) on other non-ionic x-ray contrast agents were investigated. Iopamidol, Omnipaque, Ultravist and Visipaque were added to human serum at a final concentration of 68.5 mg I/mL. Subsequently in vitro complement activation was performed, followed by determination of C3a-desArg as previously described in the section “In vitro complement activation” and in Example 1.

[3] = system: coagulation system (extrinsic pathway); test: Prothrombin time test (commercial)
Procedure: (§2) As the body cascade systems are connected, the effects of meglumine on the coagulation system were investigated, by using commercial tests for prothrombin time (extrinsic pathway) and partial activated thromboplastin time (intrinsic pathway). Briefly, meglumine was added to the test systems at final concentrations of 4 mg/mL and 25 mg/mL. In the prothrombin time test meglumine increased the coagulation time by 20.5 and 72.7 seconds respectively. In the partial activated thromboplastin time test the coagulation time was increased by 6.2 and 117.9 seconds respectively. The control plasma heparin, supplied with the kit, increased the coagulation time by 36.4 seconds compared with normal plasma. Meglumine seems to prolong the coagulation time in a concentration dependent way, exceeding the time obtained for heparin plasma at the highest concentration used.

[4] = system: coagulation system (intrinsic pathway); test: Partial activated thromboplastin time test (commercial)
Procedure: as §2

[5] = system: classical pathway of complement (heat aggregated IgG activated, SC5b-9); test: In vitro complement activation by heat aggregated IgG in human serum, SC5b-9 EIA; details: heat aggregated IgG 5 mg/mL serum, meglumine 390 mg/mL, FIG. 5
Procedure: as §1
(§3) The alternative and classical pathways represent the main ways of activating the complement system. The ability of meglumine to inhibit these pathways were investigated by using well known activators, Zymosan A (alternative pathway activator) and heat aggregated IgG (classical pathway activator). Zymosan A at 10 mg/mL serum or Zymosan A added meglumine at a final concentration of 39% (w/v) (390 mg/mL) was added to human serum and incubated for 1 hour at 37^EC on a vial roller. To obtain heat aggregated IgG, rabbit IgG at 30 mg/mL was incubated for 30 min at 65EC on a vial roller. […] The samples were analysed for SC5b-9. […]

[6] = system: alternative pathway of complement (Zymosan A activated, SC5b-9); test: In vitro complement activation by Zymosan A in human serum, SC5b-9 EIA; details: Zymosan A 10 mg/mL serum, meglumine 390 mg/mL, 1 hour 37 C, FIG. 4
Procedure: as §1, §3

[7] = ZAS 5 mg/mL serum, test substance 390 mg/mL
[8] = ZAS 2 and 1 mg/mL serum, test substance 5.3 mg/mL serum

Compound	inhibition of in vitro complement activation induced by ZAS [1, 7]	inhibition of in vitro complement activation induced by ZAS [1, 8]	inhibition of complement activation induced by Visipaque ([2]; C3a-desArg)	also measured
CNCCO [2-(methylamino)-ethanol]	inhibited	inhibited		
CNCC(O)CO (centres unmarked) [3-methylamino-1,2-propanediol]	inhibited	inhibited		
OC[C@@H](O)[C@@H](O)[C@H](O)[C@H](O)CO [Mannitol, reference compound]			no inhibitory effects	
CN[C@@H]1C(O)O[C@H](CO)[C@@H](O)[C@@H]1O (some centres unmarked) [N-methyl-mannosamine]	inhibited	weaker inhibitory effect		
CNC[C@H](O)[C@@H](O)[C@H](O)[C@H](O)CO [meglumine, N-methyl-D-glucamine]	inhibited	inhibited	abolished the complement activation	increase of coagulation time, prothrombin time test ([3]; final concentration 4 mg/mL): 20.5 s; increase of coagulation time, prothrombin time test ([3]; final concentration 25 mg/mL): 72.7 s; increase of coagulation time, partial activated thromboplastin time test ([4]; final concentration 4 mg/mL): 6.2 s; increase of coagulation time, partial activated thromboplastin time test ([4]; final concentration 25 mg/mL): 117.9 s; inhibition of classical pathway activation of complement (SC5b-9) [5]: inhibited; inhibition of alternative pathway activation of complement (SC5b-9) [6]: inhibited; inhibition of Visipaque-induced complement activation after pH adjustment ([2]; Visipaque with meglumine (pH 11) vs adjusted with HCl to pH 7.4, FIG. 3): not due to the high pH; meglumine concentration at which an inhibitory effect was observed ([2]; meglumine 0–32.5% added to Visipaque, C3a-desArg, FIG. 1): 8–32.5 % (w/w) of the iodine content in Visipaque; inhibition of in vitro complement activation by non-ionic contrast agents (C3a-desArg) ([2]; meglumine 39% w/w of mg I/ml, Iopamidol, Omnipaque, Ultravist and Visipaque at 68.5 mg I/mL serum, FIG. 7): inhibited; lowest concentration of meglumine able to inhibit the complement activation ([2]; ten concentrations 0–18% (w/w) of iodine content in Visipaque, C3a-desArg, FIG. 2): 6 % of the iodine content
